# Laboratory results published in patent US11548871B2, “Triazole carbamate pyridyl sulfonamides as LPA receptor antagonists and uses thereof” (Gilead Sciences, Inc., priority 2019, dated 2023).
# Target: human LPAR1 (Homo sapiens, UniProt Q92633)
# Assay: LPAR1 intracellular calcium mobilization assay (antagonist mode)
# Procedure: In vitro LPAR1 activity was measured in an intracellular calcium mobilization assay.
# Prior to testing cell media were aspirated from the cells and replaced with 20 μL Calcium Dye Loading Buffer (DiscoverX Calcium NoWash^PLUS Assay Kit cat #90-0091) and 2.5 mM Probenecid (Sigma Aldrich cat #P8761, prepared fresh) in HBSS/20 mM Hepes for 60 min at 37° C.
# For agonist dose curves, cells were removed from the incubator after dye loading and 10 μL HBSS/20 mM Hepes including 3× vehicle was added. Cells were incubated for 30 min at room temperature in the dark to equilibrate plate temperatures. An intermediate LPA dilution series was prepared in assay buffer to generate 4× stock. Calcium mobilization was monitored on a FLIPR Tetra (MDS, San Jose, Calif.) for 2 min and 10 μL 4×LPA in HBSS/20 mM Hepes was added to the cells 5 s into the assay.
# An intermediate antagonist dilution series was prepared as 3× samples in assay buffer. After dye loading, cells were removed from the incubator and 10 μL 3× antagonist was added. Cells were incubated for 30 min at room temperature in the dark to equilibrate plate temperatures. The final vehicle (DMSO) concentration was 1%. Compound antagonist activities was measured on a FLIPR Tetra. Calcium mobilization was monitored for 2 min and 10 μL EC80 agonist in HBSS/20 mM Hepes was added to the cells 5 s into the assay. Compound activity was analyzed using CBIS data analysis suite (ChemInnovation Software, San Diego, Calif.).
# Sequence of human LPAR1 (Q92633 whole entry): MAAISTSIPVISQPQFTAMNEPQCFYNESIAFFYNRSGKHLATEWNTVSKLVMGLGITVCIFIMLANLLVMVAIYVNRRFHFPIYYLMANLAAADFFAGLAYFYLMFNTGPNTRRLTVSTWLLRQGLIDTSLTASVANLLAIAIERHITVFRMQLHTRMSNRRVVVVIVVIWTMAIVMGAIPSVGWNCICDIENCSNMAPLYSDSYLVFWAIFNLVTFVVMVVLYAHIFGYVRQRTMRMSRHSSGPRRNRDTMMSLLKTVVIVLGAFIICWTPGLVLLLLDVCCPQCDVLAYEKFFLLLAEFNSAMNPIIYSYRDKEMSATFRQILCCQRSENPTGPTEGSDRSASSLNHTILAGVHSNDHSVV
row,SMILES,EC50
1,"Cc1cccc(COC(=O)Nc2c(-c3ccc(NS(C)(=O)=O)cn3)nnn2C)c1 [Compound 19, 3-methylbenzyl (1-methyl-4-(5-(methylsulfonamido)pyridin-2-yl)-1H-1,2,3-triazol-5-yl)carbamate]",284 nM
2,"[2H]C([2H])([2H])N(c1ccc(-c2nnn(C)c2NC(=O)O[C@H](C)c2cccnc2Cl)nc1C)S(C)(=O)=O [Compound 164, (R)-1-(2-chloropyridin-3-yl)ethyl (1-methyl-4-(6-methyl-5-(N-(methyl-d3)methylsulfonamido)pyridin-2-yl)-1H-1,2,3-triazol-5-yl)carbamate]",438 nM
3,"COc1nc(-c2nnn(C)c2NC(=O)O[C@H](C)c2ccccc2)ccc1NS(C)(=O)=O [Compound 1, (R)-1-phenylethyl (4-(6-methoxy-5-(methylsulfonamido)pyridin-2-yl)-1-methyl-1H-1,2,3-triazol-5-yl)carbamate]",323 nM
4,"Cc1nc(-c2nnn(C)c2NC(=O)OC(C)c2cncc(F)c2Cl)ccc1NS(C)(=O)=O (centres unmarked) [Compound 78, 1-(4-chloro-5-fluoropyridin-3-yl)ethyl (1-methyl-4-(6-methyl-5-(methylsulfonamido)pyridin-2-yl)-1H-1,2,3-triazol-5-yl)carbamate]",378 nM
5,"CCCCCC[C@H](OC(=O)Nc1c(-c2ccc(NS(C)(=O)=O)c(C)n2)nnn1C)C(F)(F)F [Compound 51, (S)-1,1,1-trifluorooctan-2-yl (1-methyl-4-(6-methyl-5-(methylsulfonamido)pyridin-2-yl)-1H-1,2,3-triazol-5-yl)carbamate]",1250 nM
6,"Cc1nc(-c2nnn(C)c2NC(=O)OC(C)c2cccnc2F)ccc1NS(C)(=O)=O (centres unmarked) [Compound 79, 1-(2-fluoropyridin-3-yl)ethyl (1-methyl-4-(6-methyl-5-(methylsulfonamido)pyridin-2-yl)-1H-1,2,3-triazol-5-yl)carbamate]",589 nM
7,"C[C@@H](OC(=O)Nc1c(-c2ccc(NS(C)(=O)=O)c(Cl)n2)nnn1C)c1cccnc1Cl [Compound 154, (R)-1-(2-chloropyridin-3-yl)ethyl (4-(6-chloro-5-(methylsulfonamido)pyridin-2-yl)-1-methyl-1H-1,2,3-triazol-5-yl)carbamate]",278 nM
8,"Cc1nc(-c2nnn(C)c2NC(=O)N[C@@H](c2ccccc2)C(F)F)ccc1NS(C)(=O)=O [Compound 65, (S)-N-(6-(5-(3-(2,2-difluoro-1-phenylethyl)ureido)-1-methyl-1H-1,2,3-triazol-4-yl)-2-methylpyridin-3-yl)methanesulfonamide]",1020 nM
9,"Cc1nc(-c2nnn(C)c2NC(=O)O[C@H](C)c2cccnc2)ccc1NS(C)(=O)=O [Compound 67, (R)-1-(pyridin-3-yl)ethyl (1-methyl-4-(6-methyl-5-(methylsulfonamido)pyridin-2-yl)-1H-1,2,3-triazol-5-yl)carbamate]",1630 nM
10,"Cc1nc(-c2nnn(C)c2NC(=O)OC(C)c2nccnc2Cl)ccc1NS(C)(=O)=O (centres unmarked) [Compound 76, 1-(3-chloropyrazin-2-yl)ethyl (1-methyl-4-(6-methyl-5-(methylsulfonamido)pyridin-2-yl)-1H-1,2,3-triazol-5-yl)carbamate]",929 nM
11,"Cc1nc(-c2nnn(C)c2NC(=O)OCCC(C)(C)C)ccc1NS(C)(=O)=O [Compound 32, 3,3-dimethylbutyl (1-methyl-4-(6-methyl-5-(methylsulfonamido)pyridin-2-yl)-1H-1,2,3-triazol-5-yl)carbamate]",1690 nM
12,"Cc1ncc(S(=O)(=O)Nc2ccc(-c3nnn(C)c3NC(=O)O[C@H](C)c3cccc(F)c3)nc2C)s1 [Compound 107, (R)-1-(3-fluoro-phenyl)ethyl (1-methyl-4-(6-methyl-5-((2-methylthiazole)-5-sulfonamido)pyridin-2-yl)-1H-1,2,3-triazol-5-yl)carbamate]",1120 nM
13,"Cc1nc(-c2nnn(C)c2NC(=O)OC(c2cccnc2Cl)C(F)F)ccc1NS(C)(=O)=O (centres unmarked) [Compound 137, 1-(2-chloropyridin-3-yl)-2,2-difluoroethyl (1-methyl-4-(6-methyl-5-(methylsulfonamido)pyridin-2-yl)-1H-1,2,3-triazol-5-yl)carbamate]",493 nM
14,"Cc1nc(-c2nnn(C)c2NC(=O)OC(C)c2cnc(Cl)nc2Cl)ccc1NS(C)(=O)=O (centres unmarked) [Compound 133, 1-(2,4-dichloropyrimidin-5-yl)ethyl (1-methyl-4-(6-methyl-5-(methylsulfonamido)pyridin-2-yl)-1H-1,2,3-triazol-5-yl)carbamate]",1700 nM

# The remaining lines, values ahead:
row,EC50,SMILES
1,72.6 nM,"Cc1nc(-c2nnn(C)c2NC(=O)OCc2cccc(F)c2)ccc1NS(C)(=O)=O [Compound 91, 3-fluorobenzyl(1-methyl-4-(6-methyl-5-(methylsulfonamido)pyridin-2-yl)-1H-1,2,3-triazol-5-yl)carbamate]"
2,276 nM,"Cc1nc(-c2nnn(C)c2NC(=O)O[C@H](C)c2cccc(Cl)c2F)ccc1NS(C)(=O)=O [Compound 24, (R)-1-(3-chloro-2-fluorophenyl)ethyl (1-methyl-4-(6-methyl-5-(methylsulfonamido)pyridin-2-yl)-1H-1,2,3-triazol-5-yl)carbamate]"
3,59.9 nM,"Cc1nc(-c2nnn(C)c2NC(=O)O[C@H](C)c2cc(Cl)ccc2F)ccc1NS(C)(=O)=O [Compound 56, (R)-1-(5-chloro-2-fluorophenyl)ethyl (1-methyl-4-(6-methyl-5-(methylsulfonamido)pyridin-2-yl)-1H-1,2,3-triazol-5-yl)carbamate]"
4,218 nM,"C[C@@H](OC(=O)Nc1c(-c2ccc(NS(C)(=O)=O)cn2)nnn1C)c1cc(F)ncc1F [Compound 117, (R)-1-(2,5-difluoropyridin-4-yl)ethyl (1-methyl-4-(5-(methylsulfonamido)pyridin-2-yl)-1H-1,2,3-triazol-5-yl)carbamate]"
5,23.8 nM,"Cc1nc(-c2nnn(C)c2NC(=O)O[C@H](C)c2ccccc2Cl)ccc1NS(C)(=O)=O [Compound 11, (R)-1-(2-chlorophenyl)ethyl (1-methyl-4-(6-methyl-5-(methylsulfonamido)pyridin-2-yl)-1H-1,2,3-triazol-5-yl)carbamate]"
6,65 nM,"Cc1nc(-c2nnn(C)c2NC(=O)O[C@H](C)c2cccc(Cl)c2)ccc1NS(C)(=O)=O [Compound 41, (R)-1-(3-chlorophenyl)ethyl (1-methyl-4-(6-methyl-5-(methylsulfonamido)pyridin-2-yl)-1H-1,2,3-triazol-5-yl)carbamate]"
7,18.4 nM,"Cc1nc(-c2nnn(C)c2NC(=O)O[C@H](CF)c2cccc(F)c2)ccc1NS(C)(=O)=O [Compound 43, (S)-2-fluoro-1-(3-fluorophenyl)ethyl (1-methyl-4-(6-methyl-5-(methylsulfonamido)pyridin-2-yl)-1H-1,2,3-triazol-5-yl)carbamate]"
8,163 nM,"Cc1nc(-c2nnn(C)c2NC(=O)O[C@H](C)c2nc(Cl)sc2Cl)ccc1NS(C)(=O)=O [Compound 139, (R)-1-(2,5-dichlorothiazol-4-yl)ethyl (1-methyl-4-(6-methyl-5-(methylsulfonamido)pyridin-2-yl)-1H-1,2,3-triazol-5-yl)carbamate]"
9,37.8 nM,"Cn1nnc(-c2ccc(NS(C)(=O)=O)cn2)c1NC(=O)OCc1cccc(F)c1 [Compound 21, 3-fluorobenzyl (1-methyl-4-(5-(methylsulfonamido)pyridin-2-yl)-1H-1,2,3-triazol-5-yl)carbamate]"
10,240 nM,"C[C@@H](OC(=O)Nc1c(-c2ccc(NS(=O)(=O)NC3CC3)cn2)nnn1C)c1cccnc1Cl [Compound 159, (R)-1-(2-chloropyridin-3-yl)ethyl (4-(5-((N-cyclopropylsulfamoyl)amino)pyridin-2-yl)-1-methyl-1H-1,2,3-triazol-5-yl)carbamate]"
11,48.8 nM,"C[C@@H](OC(=O)Nc1c(-c2ccc(NS(C)(=O)=O)cn2)nnn1C)c1cc(F)cnc1F [Compound 114, (R)-1-(2,5-difluoropyridin-3-yl)ethyl (1-methyl-4-(5-(methylsulfonamido)pyridin-2-yl)-1H-1,2,3-triazol-5-yl)carbamate]"
12,203 nM,"Cc1nc(-c2nnn(C)c2NC(=O)O[C@H](CCl)c2ccccc2)ccc1NS(C)(=O)=O [Compound 49, (S)-2-chloro-1-phenylethyl (1-methyl-4-(6-methyl-5-(methylsulfonamido)pyridin-2-yl)-1H-1,2,3-triazol-5-yl)carbamate]"
13,112 nM,"COc1nc(-c2nnn(C)c2NC(=O)O[C@@H](c2ccccc2)C(F)F)ccc1NS(C)(=O)=O [Compound 7, (S)-2,2-difluoro-1-phenylethyl (4-(6-methoxy-5-(methylsulfonamido)pyridin-2-yl)-1-methyl-1H-1,2,3-triazol-5-yl)carbamate]"
14,91.3 nM,"Cc1nc(-c2nnn(C)c2NC(=O)OC(CCC2CC2)C(F)(F)F)ccc1NS(C)(=O)=O (centres unmarked) [Compound 46, 4-cyclopropyl-1,1,1-trifluorobutan-2-yl (1-methyl-4-(6-methyl-5-(methylsulfonamido)pyridin-2-yl)-1H-1,2,3-triazol-5-yl)carbamate]"
15,261 nM,"CCS(=O)(=O)Nc1ccc(-c2nnn(C)c2NC(=O)O[C@H](C)c2cccc(F)c2)nc1C [Compound 101, (R)-1-(3-fluorophenyl) ethyl(4-(5-(ethyl-sulfonamido)-6-methyl-pyridin-2-yl)-1-methyl-1H-1,2,3-triazol-5-yl)carbamate]"
16,46.1 nM,"Cn1nnc(-c2ccc(NS(C)(=O)=O)cn2)c1NC(=O)O[C@H](CF)c1ccccc1 [Compound 18, (S)-2-fluoro-1-phenylethyl (1-methyl-4-(5-(methylsulfonamido)pyridin-2-yl)-1H-1,2,3-triazol-5-yl)carbamate]"
17,166 nM,"C[C@@H](OC(=O)Nc1c(-c2ccc(NS(C)(=O)=O)c(F)n2)nnn1C)c1ccccc1 [Compound 3, (R)-1-phenylethyl (4-(6-fluoro-5-(methylsulfonamido)pyridin-2-yl)-1-methyl-1H-1,2,3-triazol-5-yl)carbamate]"
18,88.4 nM,"Cc1nc(-c2nnn(C)c2NC(=O)O[C@H](C)c2ccccc2Cl)ccc1NS(=O)(=O)CC#N [Compound 102, (R)-1-(2-chloro-phenyl)ethyl (4-(5-((cyano-methyl)sulfonamido)-6-methyl-pyridin-2-yl)-1-methyl-1H-1,2,3-triazol-5-yl)carbamate]"
